Measured values as given in the supplement of paper PMC10307832.

How the values were obtained:
Experiment in all cases: relative viability (nuclei count vs DMSO), 5 days (fraction); higher = more cells survive
[1] = compound: Cc1ccc(C(=O)Nc2cccc(C(F)(F)F)c2)cc1Nc1cncc(C(N)=O)c1 [ALW-II-49-7]
Outline: (§1)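 Cells of lung cancer lines were placed in 1536-well plates and kept overnight at 37 °C. Pinning then delivered five library-drug doses (not always all listed), spaced by √10, onto plates anchored with vehicle, and the cells were left 5 days without changing medium. One step fixed, permeabilised and stained them with Hoechst, and MetaXpress counted nuclei in 4× images. Viability, as a median over plates, is treated-well nuclei divided by vehicle-well nuclei, with acceptance only at control CV below 25% and at least one doubling.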

[2] = compound: Cc1nc(Nc2ncc(C(=O)Nc3c(C)cccc3Cl)s2)cc(N2CCN(CCO)CC2)n1 [Dasatinib]
Outline: as §1

[3] = compound: C1CC1C(=O)NC2=NNC3=C2C=CC(=C3)C4=CC(=CC=C4)C(=O)NC5CC5 [XMD13-2]
Outline: as §1

Cell Line	relative viability ([1]; 0.08 µM)	relative viability ([1]; 0.253 µM)	relative viability ([1]; 0.8 µM)	relative viability ([1]; 2.53 µM)	relative viability ([1]; 8 µM)	relative viability ([2]; 0.005 µM)	relative viability ([2]; 0.01581 µM)	relative viability ([2]; 0.05 µM)	relative viability ([2]; 0.075 µM, anchor plate)	relative viability ([2]; 0.1581 µM)	relative viability ([2]; 0.5 µM)	relative viability ([3]; 0.05 µM)	relative viability ([3]; 0.1581 µM)	relative viability ([3]; 0.5 µM)	relative viability ([3]; 1.581 µM)	relative viability ([3]; 5 µM)
PC-3 [JPC-3]	1.08	1.04	1.04	1.13	0.971	1.08	1.01	1.04	0.971	1.02	0.59	1.06	1.05	1.06	1.02	1.17
HCC-44	0.971	1.06	0.969	1.03	0.957	1.12	0.994	1.04	–	0.961	0.533	0.988	0.996	1.05	0.978	1.03
NCI-H2405	1.01	1.06	0.961	0.963	0.802	0.842	0.726	0.533	0.205	0.305	0.222	1.09	0.986	1.05	0.883	1.08
LXF-289	0.931	1.04	1.02	1.06	1.05	1.03	1.07	1.08	0.227	0.485	0.226	1.07	1.02	1.04	1.07	1.05
LOU-NH91	0.939	1.03	0.951	0.654	0.837	0.839	0.893	0.724	0.558	0.587	0.422	1.12	0.979	0.965	0.85	1.15
A549	1.08	0.966	0.891	1.02	0.947	0.989	0.85	0.914	–	0.626	0.346	1.28	1.02	1.06	0.963	0.962
H3255	1.12	0.999	1.04	0.904	0.808	0.971	1	0.881	0.402	0.812	0.433	1.18	0.949	0.95	0.892	0.895
NCI-H1395	0.941	0.992	1.1	0.917	0.851	0.91	1.03	0.783	0.435	0.442	0.429	1.06	0.918	0.948	0.852	1
LC-2-ad	0.942	1.03	0.922	1.08	0.861	1	0.984	0.924	0.601	0.674	0.35	1.03	1.04	1.03	0.94	0.994
NCI-H838	0.945	0.901	0.903	0.982	0.918	0.87	0.676	0.532	0.307	0.38	0.289	1.11	0.962	1.01	0.998	1.07
Calu-6	0.952	1.03	0.947	0.891	0.869	0.895	0.766	0.712	–	0.627	0.554	1.05	1.08	1.07	0.99	1.04
NCI-H1648	0.633	0.839	0.676	0.683	0.797	1.26	0.938	1.03	–	0.405	0.192	1.14	0.764	0.84	0.94	0.814
LCLC-97TM1	0.97	0.905	1.09	0.755	0.865	1.17	0.97	1.05	0.837	1	0.561	0.974	0.917	0.95	0.7	0.903
HCC-15	1.04	0.975	0.964	1.08	0.919	1.03	0.991	0.928	0.651	0.854	0.726	1.11	0.931	1.01	0.98	0.904
CAL-12T	0.952	0.96	1.03	1.02	0.928	1.02	0.998	1.12	0.486	0.795	0.416	1.05	0.961	1.06	0.887	1.02
NCI-H727	1.09	0.907	0.9	0.902	0.855	0.724	0.678	0.53	0.37	0.388	0.256	1.06	0.892	0.973	0.947	1.04
ABC-1	0.938	0.999	0.923	0.973	0.941	0.905	0.862	0.785	0.641	0.564	0.654	1.02	0.873	1.01	0.745	0.472
NCI-H2023	0.965	0.963	0.995	0.96	0.911	0.883	0.888	0.735	0.592	0.648	0.593	1.18	1	0.992	0.986	1.02
NCI-H2342	0.866	1.04	0.98	0.925	0.951	0.967	0.632	0.834	0.311	0.535	0.309	1.1	0.97	1.03	0.804	0.972
SW 1573	0.976	1.12	1.04	1.05	0.938	0.931	0.915	0.839	0.517	0.672	0.564	1.08	0.998	1.09	0.941	0.874
NCI-H1993	0.899	0.952	1.07	1.07	1.01	0.793	0.653	0.856	0.625	0.736	0.507	1.07	0.895	0.885	0.822	0.925

Cell Line	relative viability ([1]; 0.08 µM)	relative viability ([1]; 0.253 µM)	relative viability ([1]; 0.8 µM)	relative viability ([1]; 2.53 µM)	relative viability ([1]; 8 µM)	relative viability ([2]; 0.005 µM)	relative viability ([2]; 0.01581 µM)	relative viability ([2]; 0.05 µM)	relative viability ([2]; 0.075 µM, anchor plate)	relative viability ([2]; 0.1581 µM)	relative viability ([2]; 0.5 µM)	relative viability ([3]; 0.05 µM)	relative viability ([3]; 0.1581 µM)	relative viability ([3]; 0.5 µM)	relative viability ([3]; 1.581 µM)	relative viability ([3]; 5 µM)
NCI-H661	1.04	0.936	0.927	0.975	0.901	0.955	1.06	0.911	0.974	0.8	0.661	0.971	1.04	0.971	0.976	0.844
NCI-H520	1.04	0.987	0.987	0.94	0.964	0.785	0.592	0.518	0.21	0.257	0.243	1.09	1.09	1.08	0.851	0.643
ChaGo-K-1	1.03	0.96	0.909	0.974	1.01	0.967	0.976	0.897	0.597	0.859	0.686	1.02	0.99	1.04	1.03	0.93
NCI-H2085	1.01	1.05	0.985	1.03	0.995	0.981	0.904	0.804	0.255	0.356	0.218	1.06	0.981	1.04	0.871	1.06
NCI-H1651	1.09	0.923	0.956	0.952	0.943	1.01	0.902	0.91	0.391	0.817	0.758	1.06	0.95	1.03	1.02	1.04
RERF-LC-KJ	1.02	1.06	0.997	0.911	0.939	1.01	0.928	0.944	0.781	0.841	0.704	1.08	0.942	1.05	0.938	0.912
NCI-H1755	0.975	1.03	1.02	0.968	0.897	0.964	0.868	0.747	0.44	0.544	0.363	1.07	0.997	0.994	0.985	1.04
SK-MES-1	0.957	0.97	0.963	0.851	0.742	1.05	0.922	0.964	0.385	0.61	0.215	1.13	1.01	1.03	0.968	1.07
NCI-H2126	0.918	1.03	1.02	0.926	0.992	0.98	0.864	0.945	0.643	0.814	0.403	1.02	0.949	1.02	1.03	1.03
EPLC-272H	1.01	0.702	0.945	0.977	0.86	0.965	0.916	0.882	0.356	0.71	0.295	1.18	0.882	1.16	0.738	0.646
NCI-H1975	0.956	0.996	0.757	0.855	0.841	0.83	0.768	0.78	0.378	0.545	0.282	1.23	1.01	0.98	1.1	0.961
NCI-H3122	1.05	0.868	1.06	1.05	1.07	1.02	1.04	1.06	0.766	1.01	0.87	1.01	1	1.03	1.01	1.01
COR-L 105	0.822	1.05	0.968	0.942	0.893	0.847	0.692	0.625	0.386	0.39	0.326	1.25	1.08	0.911	0.947	0.858
BEN	1.04	1.01	0.728	0.825	0.902	0.776	0.552	0.487	0.322	0.423	0.376	1.07	1.01	0.992	0.874	0.933
NCI-H1915	0.993	1.01	0.945	0.85	0.544	0.966	0.987	0.903	0.315	0.492	0.256	1.02	0.958	1.08	0.985	1
NCI-H650	0.992	0.997	0.841	1.03	0.647	0.876	0.936	0.861	0.475	0.712	0.5	1.1	0.963	1.04	0.845	1.03
NCI-H1703	0.982	0.981	0.734	0.429	0.434	0.482	0.457	0.311	–	0.177	0.148	1.29	1.33	1.05	0.764	1.06
NCI-H1650	0.854	0.789	0.836	0.985	0.985	0.868	0.769	0.6	0.336	0.388	0.338	1.08	0.936	1.17	0.951	0.907
NCI-H2009	0.967	1.04	0.93	0.844	0.709	1.07	0.988	0.929	0.303	0.456	0.236	0.989	1.13	1.22	1.04	1.07
COR-L23	1.05	0.969	0.904	0.892	1.02	1.01	0.852	0.923	0.477	0.614	0.519	1.21	0.993	1.11	0.969	0.986
NCI-H460	1	1.07	0.944	1.02	0.882	0.949	0.897	0.856	0.529	0.73	0.605	1.06	1.01	1.06	1.01	0.982
